# Like-named read-outs stand apart in the source and are kept apart here.
# Tests used:
# Assay type in all cases: binding
# [1] = molecular target: T1, GST-CIB1 : F-scrambled peptide (Homo sapiens, UniProt Q99828); assay: FP scrambled-peptide counter screen, 1536-well format; details: scrambled-peptide counterscreen; for COUNTERSCREEN Confirm?: YES/NO call; for COUNTERSCREEN Curve Class: qHTS curve class; for IC50: read-out: COUNTERSCREEN IC50
# T1 construct: made in house; host or cells: BL-21 plus RIL cells (E. coli)
# T1 sequence (Q99828 1-191): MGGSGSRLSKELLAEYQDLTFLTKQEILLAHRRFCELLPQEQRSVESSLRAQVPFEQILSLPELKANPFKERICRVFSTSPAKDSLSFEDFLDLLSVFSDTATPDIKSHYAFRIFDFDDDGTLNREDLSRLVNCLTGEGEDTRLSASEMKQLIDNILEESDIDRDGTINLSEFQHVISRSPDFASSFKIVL
# [2] = molecular target: T2, CIB1 and αIIb interaction (CIB1-GST : F-αIIb peptide) (Homo sapiens, UniProt Q99828); assay: FP assay, 1536-well qHTS format (primary and confirmatory screen); details: for CONFIRMATORY SCREEN Confirm?: YES/NO call; for CONFIRMATORY SCREEN Curve Class: qHTS curve class; for CONFIRMATORY SCREEN Curve Class / Curve Class: negative sign = inhibitory curve; for CONFIRMATORY SCREEN Efficacy (%) / Efficacy (%): negative = inhibition
# T2 construct: made in house; host or cells: BL-21 plus RIL cells (E. coli)
# T2 sequence (Q99828 1-191): T1 sequence (Q99828 1-191)
# [3] = molecular target: T3, CIB1 and αIIb interaction (GST-CIB1 : F-αIIb peptide) (Homo sapiens, UniProt Q99828); assay: FP assay, 384-well format (screen); set-up: 384-well SCREEN Efficacy (%): concentration or dose not given beside the values; details: F-αIIb peptide; for 384-well SCREEN Confirm?: YES/NO; for IC50: read-out: 384-well SCREEN IC50
# T3 construct: made in house; host or cells: BL-21 plus RIL cells (E. coli)
# T3 sequence (Q99828 1-191): T1 sequence (Q99828 1-191)
# [4] = molecular target: T1, GST-CIB1 : F-scrambled peptide; assay: FP scrambled-peptide counter screen, 384-well format; details: F-scrambled peptide; for IC50: read-out: 384-well COUNTERSCREEN IC50; for 384-well COUNTERSCREEN Confirm?: *: Curve in opposite direction
# [5] = confirmatory screen, read-out: CONFIRMATORY SCREEN IC50
# [6] = qHTS primary screen hits, Table S2
# [7] = qHTS primary screen hits, Table S2, read-out: IC50
# [8] = qHTS FP screen hits, Table S2, one class per curve where COUNT > 1
# [9] = qHTS FP screen hits, Table S2, read-out: IC50
# [10] = qHTS primary screen hits, Table S2, several classes where COUNT > 1
SMILES,COUNTERSCREEN Efficacy (%) [1] [%],COUNTERSCREEN Confirm? [1],COUNTERSCREEN Curve Class [1],CONFIRMATORY SCREEN Confirm? ([2]; confirmatory screen),CONFIRMATORY SCREEN Curve Class ([2]; confirmatory screen),CONFIRMATORY SCREEN Efficacy (%) ([2]; confirmatory screen),"IC50 [2, 5] [µM]","Efficacy (%) [2, 6] [%]","IC50 [2, 7] [µM]",384-well SCREEN Efficacy (%) [3] [%],384-well SCREEN Confirm? [3],IC50 [3] [µM],384-well COUNTERSCREEN Efficacy (%) [4] [%],IC50 [4] [µM],"Curve Class [2, 10]",384-well COUNTERSCREEN Confirm? [4],also measured
Cc1ccc(S(=O)(=O)Nc2cc([N+](=O)[O-])ccc2C(=O)Nc2nc(-c3ccccc3)cs2)cc1.O=C(O)C(F)(F)F [NCGC00262992-01],42,YES,4,YES,-1.1,-97,5.6,-34,10,135,YES,> 120,115,79.4,,,"Curve Class [2, 6]: -2.4"
Cc1ccc(S(=O)(=O)Nc2cnccc2C(=O)Nc2nc(-c3ccc4c(c3)CCCC4)cs2)cc1.O=C(O)C(F)(F)F [NCGC00318953-01],-23,YES,4,YES,-1.2,-70,,,,20,,> 120,125,35.5,,,"Efficacy (%) ([2]; qHTS FP screen hits, Table S2): -37%; Curve Class [2, 8]: -1.2; IC50 [2, 9]: 20 µM"
Cc1ccc(S(=O)(=O)Nc2cnccc2C(=O)Nc2nc(-c3ccc(C)c(C)c3)cs2)cc1.O=C(O)C(F)(F)F [NCGC00318954-01],17,YES,4,YES,-1.4,-70,22.4,-61,,52,YES,16,37,31.6,-3,YES*,
Cc1ccc(S(=O)(=O)Nc2cnccc2C(=O)Nc2nc(-c3cccc(Cl)c3)cs2)cc1.O=C(O)C(F)(F)F [NCGC00318956-01],-8.5,YES,4,YES,-1.1,-94,,-32,12.6,43,YES,14.2,84,20,,YES*,"Curve Class [2, 6]: -1.4"
Cc1ccc(S(=O)(=O)Nc2cnccc2C(=O)Nc2nc(-c3ccc(Cl)cc3)cs2)cc1.O=C(O)C(F)(F)F [NCGC00318981-01],53,YES,3,YES,-1.2,-69,28.2,-35,31.6,45,,> 120,60,28.2,-1.2,,IC50 [1]: 89.1 µM
COc1cccc(-c2csc(NC(=O)c3ccncc3NS(=O)(=O)c3ccc(C)cc3)n2)c1 [NCGC00319006-02],-41,YES,-3,YES,-2.2,-89,31.6,,,52,YES,20,18,> 120,,YES,IC50 [1]: 89.1 µM
Cc1ccc(-c2csc(NC(=O)c3ccncc3NS(=O)(=O)c3ccc(C)cc3)n2)cc1.O=C(O)C(F)(F)F [NCGC00319008-01],26,YES,4,YES,-1.2,-50,,,,46,YES,10.7,70,8.9,,YES*,"Efficacy (%) ([2]; qHTS FP screen hits, Table S2): -45%; Curve Class [2, 8]: -1.2; IC50 [2, 9]: 17.8 µM"
Cc1ccc(S(=O)(=O)Nc2cnccc2C(=O)Nc2nc(-c3cccc(C)c3)cs2)cc1.O=C(O)C(F)(F)F [NCGC00343524-02],14,YES,4,YES,-2.1,-128,20,-40,35.5,42,YES,10.1,60,14.1,-2.2,YES*,
Cc1ccc(S(=O)(=O)Nc2cnccc2C(=O)Nc2nc(-c3nc4ccccc4s3)cs2)cc1.O=C(O)C(F)(F)F [NCGC00343736-01],-16,YES,4,YES,-1.1,-89,,-51,28.2,44,YES,22.4,23,> 120,,YES,"Curve Class [2, 6]: -1.2"
N#Cc1cnc(NS(=O)(=O)c2ccc(NC(=O)Cc3ccc(F)c(Cl)c3)cc2)s1.O=C(O)C(F)(F)F [NCGC00343826-01],24,YES,4,YES,-1.4,-50,,-29,2.8,36,YES,2.2,28,> 120,-1.2,YES,
Cc1ccc(S(=O)(=O)Nc2cnccc2C(=O)Nc2nc3ccccc3s2)cc1.O=C(O)C(F)(F)F [NCGC00343897-01],17,YES,4,YES,-1.4,-52,10,-44,31.6,30,YES,12.6,16,> 120,-1.2,YES,
N[C@@H](Cc1ccc(Oc2cc(I)c(O)c(I)c2)c(I)c1)C(=O)O [NCGC00344545-01],-19,YES,4,YES,-1.2,-60,15.8,-39,39.8,46,YES,10,51,3.1,-2.2,,
Cc1cc(SCc2sc(-c3ccc(Cl)c(Cl)c3)nc2C)ccc1OCc1nnn[nH]1.O=C(O)C(F)(F)F [NCGC00344871-01],204,YES,,YES,-1.2,-63,15.8,-38,17.8,42,,> 120,167,44.7,-1.2,,IC50 [1]: 79.4 µM
O=C(Nc1nc(-c2ccccc2)cs1)c1ccncc1NS(=O)(=O)c1ccc(Cl)cc1.O=C(O)C(F)(F)F [NCGC00344892-02],13,YES,4,YES,-1.2,-69,25.1,,,31,YES,35.5,55,> 120,,YES,

# Reference: PMC11249646, “Small-Molecule Disruptors of the Interaction between Calcium- and Integrin-Binding Protein 1 and Integrin αIIbβ3 as Novel Antiplatelet Agents” (ACS Pharmacology & Translational Science, 2024)
